According to ChEMBL document CHEMBL2010739, “Antiproliferative activity of trans-avicennol from Zanthoxylum chiloperone var. angustifolium against human cancer stem cells” (J Nat Prod, 2012):
pKi: −log10 of the molar value. Active and inactive are the calls of the source. The rule behind the calls is not given here.

Columns and labels:
[1] = Antiproliferative activity against human NSC-24 cells at 34.2 ug/ml to 100 uM by WST-1 assay; format: cell-based
NSC-24 = assay: Inhibition of Erk phosphorylation in human NSC-24 cells at 100 uM after 30 mins by Western blot analysis; format: cell-based
[2] = Antiproliferative activity against human TG1 cells at 34.2 ug/ml by WST-1 assay; format: functional
[3] = Antiproliferative activity against human TG10 cells at 34.2 ug/ml by WST-1 assay; format: functional
[4] = target: Indoleamine 2,3-dioxygenase 1 (Homo sapiens, UniProt P14902); assay: Competitive inhibition of human indoleamine 2,3-dioxygenase assessed as conversion of N-formylkynurenine to kynurenine after 2 hrs by spectrophotometrical analysis
Chain of Indoleamine 2,3-dioxygenase 1 (P14902 whole entry): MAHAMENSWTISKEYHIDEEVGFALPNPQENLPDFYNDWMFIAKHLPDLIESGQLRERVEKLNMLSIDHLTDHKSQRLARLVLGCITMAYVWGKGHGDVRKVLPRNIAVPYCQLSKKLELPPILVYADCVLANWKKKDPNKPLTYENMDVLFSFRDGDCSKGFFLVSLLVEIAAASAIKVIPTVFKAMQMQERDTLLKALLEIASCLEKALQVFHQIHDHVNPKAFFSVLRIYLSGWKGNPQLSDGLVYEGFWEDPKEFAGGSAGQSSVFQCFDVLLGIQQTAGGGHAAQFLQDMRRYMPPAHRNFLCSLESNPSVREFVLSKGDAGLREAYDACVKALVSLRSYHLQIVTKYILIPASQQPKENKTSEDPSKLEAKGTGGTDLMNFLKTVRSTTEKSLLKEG

TG1 = assay: Induction of Erk phosphorylation in human TG1 cells at 100 uM after 30 mins by Western blot analysis; format: cell-based

SMILES: COc1c2c(c3ccc(=O)oc3c1/C=C/C(C)(C)O)OC(C)(C)C=C2 [AVICENNOL]
- Activity [1]: Non-toxic
- inhibition (NSC-24): Active
- Activity [2]: 35%
- Activity [3]: 40%
- pKi [4]: 3.20
- Activity (TG1): Active
